Reference: US7683051B2, “Crystalline polymorph of bazedoxifene acetate” (Wyeth, priority 2004, dated 2010)
Converted amounts (≈) assume the structure as drawn.

Columns and labels:
[1] = acetic acid
[2] = acetic acid; remark: listed apart in the source
[3] = tested on: uterine response; settings: preclinical models of uterine stimulation; cited from earlier work
[4] = tested on: ovariectomized rat model of osteopenia; settings: cited from earlier work
[5] = tested on: MCF-7 cell line (human breast cancer cell line); settings: MCF-7 human breast cancer cell line; cited from earlier work
[6] = physchem; settings: EtOH/EtOAc/Tol, organic solvent or mixture, Solubility-Org (EtOH/EtOAc/Tol)

Row | Solubility-Org (EtOH/EtOAc/Tol) [1] [mg/mL] | Solubility-Water [2] [mg/mL] | solubility [6] [mg/mL] | SMILES | stimulation of uterine response [3] | effect on bone loss [4] | effect on cholesterol [4] | estrogen agonist/antagonist behaviour in MCF-7 cells [5]
1 | 12.4 (≈ 26.3 mM) | 0.23 (≈ 0.489 mM) |  | Cc1c(-c2ccc(O)cc2)n(Cc2ccc(OCCN3CCCCCC3)cc2)c2ccc(O)cc12 [Form B, 1-[4-(2-azepan-1-yl-ethoxy)-benzyl]-2-(4-hydroxy-phenyl)-3-methyl-1H-indol-5-ol acetic acid] |  |  |  | 
2 |  |  |  | Cc1c(-c2ccc(O)cc2)n(Cc2ccc(OCCN3CCCCCC3)cc2)c2ccc(O)cc12 [bazedoxifene acetate, 1-[4-(2-azepan-1-yl-ethoxy)-benzyl]-2-(4-hydroxy-phenyl)-3-methyl-1H-indol-5-ol acetic acid] | little or no stimulation of uterine response | estrogen agonist-like effect in preventing bone loss | reducing cholesterol | behaves as an estrogen antagonist
3 |  | 0.49 (≈ 1.04 mM) | 24.5 (≈ 52.1 mM) | Cc1c(-c2ccc(O)cc2)n(Cc2ccc(OCCN3CCCCCC3)cc2)c2ccc(O)cc12 [Form A, 1-[4-(2-azepan-1-yl-ethoxy)-benzyl]-2-(4-hydroxy-phenyl)-3-methyl-1H-indol-5-ol acetic acid] |  |  |  | 
